Experimental data: PubChem BioAssay (NCI)
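1) Cells in 96-well plates. 2) Compound, 48 h, 5 concentrations. 3) Linear interpolation between surrounding doses. 4) Unreached endpoint = highest concentration. The concentration for 50% growth inhibition is given as GI50. TGI marks complete inhibition of growth.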

Assays:
Assay in all cases: NCI-60 cell line screen, 48 h
[1] = system: NCI-H226 lung
[2] = system: NCI-H23 lung
[3] = system: NCI-H460 lung
[4] = system: NCI-H522 lung
[5] = system: NCI/ADR-RES ovarian
[6] = system: OVCAR-3 ovarian
[7] = system: OVCAR-4 ovarian
[8] = system: OVCAR-5 ovarian
[9] = system: OVCAR-8 ovarian
[10] = system: PC-3 prostate
[11] = system: RPMI-8226 leukemia
[12] = system: RXF 393 renal
[13] = system: SF-268 CNS
[14] = system: SF-539 CNS
[15] = system: SK-MEL-2 melanoma
[16] = system: SK-MEL-28 melanoma
[17] = system: SK-MEL-5 melanoma
[18] = system: SK-OV-3 ovarian
[19] = system: SN12C renal
[20] = system: SNB-19 CNS
[21] = system: SNB-75 CNS
[22] = system: SR leukemia
[23] = system: SW-620 colon
[24] = system: TK-10 renal
[25] = system: U251 CNS
[26] = system: UACC-257 melanoma
[27] = system: UACC-62 melanoma
[28] = system: UO-31 renal

Question: Which GI50 [1] does the source give for `N#C/C=C(\c1ccc([N+](=O)[O-])cc1)n1nnc2cc(Cl)c(Cl)cc21` here?
Answer: 3 µM

Question: And the TGI [1]?
Answer: 17.1 µM

Question: What about the GI50 [2] of the same compound?
Answer: 2.28 µM

Question: What about the TGI [2] of the same compound?
Answer: 6.68 µM

Question: What about the GI50 [3] of the same compound?
Answer: 2.36 µM

Question: And the TGI [3]?
Answer: 6.98 µM

Question: And the GI50 [4]?
Answer: 1.72 µM

Question: And the TGI [4]?
Answer: 3.57 µM

Question: What about the GI50 [5] of the same compound?
Answer: 2.54 µM

Question: What about the TGI [5] of the same compound?
Answer: 8.79 µM

Question: What about the GI50 [6] of the same compound?
Answer: 1.88 µM

Question: What about the TGI [6] of the same compound?
Answer: 3.91 µM

Question: What about the GI50 [7] of the same compound?
Answer: 1.54 µM

Question: And the TGI [7]?
Answer: 2.89 µM

Question: And the GI50 [8]?
Answer: 1.95 µM

Question: What about the TGI [8] of the same compound?
Answer: 3.99 µM

Question: And the GI50 [9]?
Answer: 3.02 µM

Question: And the TGI [9]?
Answer: 12 µM

Question: And the GI50 [10]?
Answer: 1.56 µM

Question: And the TGI [10]?
Answer: 4 µM

Question: And the GI50 [11]?
Answer: 0.604 µM

Question: What about the TGI [11] of the same compound?
Answer: 2.91 µM

Question: What about the GI50 [12] of the same compound?
Answer: 1.82 µM

Question: And the TGI [12]?
Answer: 3.77 µM

Question: What about the GI50 [13] of the same compound?
Answer: 3.58 µM

Question: And the TGI [13]?
Answer: 33.5 µM

Question: And the GI50 [14]?
Answer: 1.77 µM

Question: And the TGI [14]?
Answer: 3.26 µM

Question: And the GI50 [15]?
Answer: 2.56 µM

Question: What about the TGI [15] of the same compound?
Answer: 6.42 µM

Question: And the GI50 [16]?
Answer: 2.08 µM

Question: And the TGI [16]?
Answer: 4.23 µM

Question: And the GI50 [17]?
Answer: 1.83 µM

Question: What about the TGI [17] of the same compound?
Answer: 3.6 µM

Question: What about the GI50 [18] of the same compound?
Answer: 5.1 µM

Question: What about the TGI [18] of the same compound?
Answer: 18.5 µM

Question: What about the GI50 [19] of the same compound?
Answer: 2.08 µM

Question: What about the TGI [19] of the same compound?
Answer: 5.4 µM

Question: And the GI50 [20]?
Answer: 2.37 µM

Question: What about the TGI [20] of the same compound?
Answer: 7.14 µM

Question: And the GI50 [21]?
Answer: 2.13 µM

Question: And the TGI [21]?
Answer: 8.11 µM

Question: What about the GI50 [22] of the same compound?
Answer: 1.52 µM

Question: What about the TGI [22] of the same compound?
Answer: > 100 µM

Question: And the GI50 [23]?
Answer: 1.75 µM

Question: And the TGI [23]?
Answer: 4.15 µM

Question: And the GI50 [24]?
Answer: 2.6 µM

Question: What about the TGI [24] of the same compound?
Answer: 4.16 µM

Question: And the GI50 [25]?
Answer: 1.71 µM

Question: And the TGI [25]?
Answer: 3.37 µM

Question: What about the GI50 [26] of the same compound?
Answer: 2.06 µM

Question: What about the TGI [26] of the same compound?
Answer: 4.53 µM

Question: What about the GI50 [27] of the same compound?
Answer: 1.77 µM

Question: And the TGI [27]?
Answer: 3.95 µM

Question: And the GI50 [28]?
Answer: 1.11 µM

Question: And the TGI [28]?
Answer: 2.32 µM
